{
  "source": "paper PMC7187413",
  "about": "(Journal of medicinal chemistry, 2020)",
  "key": {"[1]": {"target": "WDR5 (Homo sapiens, UniProt P61964)", "assay": "Competition fluorescence polarization-based assay"}, "[2]": {"target": "WDR5-MYC complex (Homo sapiens, UniProt P61964)", "assay": "Co-IP target engagement in whole", "format": "cell-based", "details": "transformed HEK293 cells, 5 μM compound, 24 h"}, "[3]": {"target": "MLL-1 in the full WDR5, RBBP5, ASH2L, and DPY30 (WRAD) complex (Homo sapiens, UniProt P61964)", "assay": "Biochemical histone methyltransferase assay", "details": "Supplemental Table 4"}, "[4]": {"tested_on": "WDR5 binding to chromatin", "assay": "ChIP of WDR5 binding to chromatin at MYC target genes in HEK293 cells", "format": "cell-based, human", "details": "cells treated with 12 versus N.C."}, "[5]": {"tested_on": "MYC bound to chromatin", "assay": "ChIP-qPCR of MYC binding to target genes in c-MYC-HA overexpressing HEK293 cells", "format": "cell-based, human", "details": "20 μM, 10 h"}},
  "note": "Entries after “also recorded” stand apart in the source; their conditions may differ.",
  "data": [
    {"molecule": "5-Bromo-3-chloro-N-(1-cyclopentyl-2-(4-(pyrrolidin-3-yl)piperidine-1-carbonyl)-1H-imidazol-4-yl)-2-hydroxybenzenesulfonamide [Compound 9]", "values": [
      {"measurement": "Kd", "setting": "[1]; read-out: FPA Kd, competition with FITC-labeled small molecule, average of at least 3 independent replicates ± standard deviation", "value": "5 ± 1", "unit": "µM"}
    ]},
    {"molecule": "O=S(=O)(Nc1cn(C2CCCC2)cn1)c1cc(Br)cc(Cl)c1O", "note": "[Compound 2i, 5-Bromo-3-chloro-N-(1-cyclopentyl-1H-imidazol-4-yl)-2-hydroxybenzenesulfonamide]", "values": [
      {"measurement": "fold improvement in the binding affinity compared to 2a", "setting": "[1]; FPA Kd relative to 2a", "value": 2.5, "unit": "fold"},
      {"measurement": "WDR5-MYC complex formation in whole cells relative to DMSO", "setting": "[2]", "value": "decreased complex formation"}
    ]},
    {"molecule": "O=S(=O)(Nc1cnn(C2CCCC2)c1)c1cc(Br)cc(Cl)c1O", "note": "[Compound 3d, 5-Bromo-3-chloro-N-(1-cyclopentyl-1H-pyrazol-4-yl)-2-hydroxybenzenesulfonamide]", "values": [
      {"measurement": "inhibition of histone methyltransferase activity of MLL-1", "setting": "[3]", "value": "inhibited"}
    ]},
    {"molecule": "CCOC(=O)c1nc(NS(=O)(=O)c2cc(Br)cc(Cl)c2O)cn1C1CCCC1", "note": "[Compound 6, Ethyl 4-((5-bromo-3-chloro-2-hydroxyphenyl)sulfonamido)-1-cyclopentyl-1H-imidazole-2-carboxylate]", "values": [
      {"measurement": "inhibition of histone methyltransferase activity of MLL-1", "setting": "[3]", "value": "inhibited"}
    ]},
    {"molecule": "CNC(=O)c1nc(NS(=O)(=O)c2cc(Br)cc(Cl)c2O)cn1C1CCCC1", "note": "[Compound 8, 4-((5-Bromo-3-chloro-2-hydroxyphenyl)sulfonamido)-1-cyclopentyl-N-methyl-1H-imidazole-2-carboxamide]", "values": [
      {"measurement": "inhibition of histone methyltransferase activity of MLL-1", "setting": "[3]", "value": "inhibited"}
    ]},
    {"molecule": "CS(=O)(=O)c1nc(NS(=O)(=O)c2cc(Br)cc(Cl)c2O)cn1C1CCCC1", "note": "[Compound 12]", "values": [
      {"measurement": "WDR5 binding to chromatin at MYC target loci", "setting": "[4]", "value": "comparable levels"},
      {"measurement": "amount of MYC at loci where MYC recruitment is dependent on WDR5", "setting": "[5]; C7orf40, RNPS1, RPS14, RPL5", "value": "reduction in the amount of MYC; also recorded: reduce the amount of MYC bound to chromatin"},
      {"measurement": "amount of MYC at sites where MYC binding is independent of WDR5", "setting": "[5]; ZFPM1 and ZNF771", "value": "remained nearly unaffected; also recorded: did not affect binding of MYC"},
      {"measurement": "inhibition of histone methyltransferase activity of MLL-1", "setting": "[3]", "value": "inhibited"}
    ]}
  ]
}
